Test results reported in ChEMBL document CHEMBL3102697, “Controlled-deactivation cannabinergic ligands” (J Med Chem, 2013).
pEC50, pKi: −log10 of the molar value. Activity calls are given as the source filed them. The rule behind the calls is not given here.

Columns and labels:
Cannabinoid receptor 1 [1] = target: T1, Cannabinoid receptor 1 (Rattus norvegicus, UniProt P20272); assay: Displacement of [3H]CP-55,940 from CB1 receptor in rat brain by scintillation counting analysis; type: tissue-based
Cannabinoid receptor 2 [2] = target: Cannabinoid receptor 2 (Mus musculus, UniProt P47936); assay: Displacement of [3H]CP-55,940 from mouse CB2 receptor expressed in HEK293 cell membranes by scintillation counting analysis
Rattus norvegicus [3] = assay: Induction of hypothermia in sc dosed Sprague-Dawley rat measured for 6 hrs; type: functional, organism-based
Cannabinoid receptor 2 [4] = target: Cannabinoid receptor 2 (Homo sapiens, UniProt P34972); assay: Displacement of [3H]CP-55,940 from human CB2 receptor expressed in HEK293 cell membranes by scintillation counting analysis
Plasma [5] = assay: Half life in rat plasma at 200 uM by HPLC analysis; type: ADME, cell-free
Plasma [6] = assay: Half life in mouse plasma at 200 uM by HPLC analysis; type: ADME, cell-free
[7] = target: Cannabinoid receptor 1 (Rattus norvegicus) (UniProt P20272); assay: Agonist activity at rat CB1 receptor expressed in HEK293 cells assessed as inhibition of forskolin-stimulated cAMP accumulation up to 5 uM after 30 mins; type: functional, cell-based
Rattus norvegicus [8] = assay: Induction of hypothermia in Sprague-Dawley rat at 3 mg/kg, sc after 6 hrs; type: functional, organism-based; parameters: dose 3 mg/kg
Rattus norvegicus [9] = assay: Induction of hypothermia in Sprague-Dawley rat at 0.1 to 3 mg/kg, sc measured for 6 hrs; type: functional, organism-based
Rattus norvegicus [10] = assay: Induction of hypothermia in Sprague-Dawley rat at 1 to 3 mg/kg, sc measured for 6 hrs; type: functional; details: dose mg/kg 1-3; route subcutaneous
Rattus norvegicus [11] = assay: Induction of hypothermia in Sprague-Dawley rat at 3 mg/kg, sc up to 300 mins; type: functional, organism-based; parameters: dose 3 mg/kg
Cannabinoid receptor 1 [12] = target: T1, Cannabinoid receptor 1; assay: Agonist activity at rat CB1 receptor expressed in HEK293 cells assessed as inhibition of forskolin-stimulated cAMP accumulation after 30 mins; type: functional, cell-based
[13] = target: Cannabinoid receptor 1 (Rattus norvegicus) (UniProt P20272); assay: Agonist activity at rat CB1 receptor expressed in HEK293 cells assessed as inhibition of forskolin-stimulated cAMP accumulation at 500 nM after 30 mins relative to CP-55,940; type: functional, cell-based
Rattus norvegicus [14] = assay: Induction of hypothermia in Sprague-Dawley rat at 3 mg/kg, sc after 90 to 120 mins; type: functional, organism-based; parameters: dose 3 mg/kg
Rattus norvegicus [15] = assay: Induction of hypothermia in Sprague-Dawley rat at 1 mg/kg, sc after 90 to 120 mins; type: functional, organism-based; parameters: dose 1 mg/kg
Rattus norvegicus [16] = assay: Induction of hypothermia in Sprague-Dawley rat at 1 mg/kg, sc up to 300 mins; type: functional, organism-based; parameters: dose 1 mg/kg
Mus musculus = assay: Analgesic activity in CD-1 mouse assessed as tail-flick withdrawal latency at 0.3 to 1 mg/kg, ip; type: functional, organism-based
Rattus norvegicus [17] = assay: Induction of hypothermia in Sprague-Dawley rat at 0.3 mg/kg, sc measured at 12 hrs; type: functional, organism-based; parameters: dose 0.3 mg/kg
Rattus norvegicus [18] = assay: Induction of hypothermia in Sprague-Dawley rat at 0.3 mg/kg, sc after 4 hrs; type: functional, organism-based; parameters: dose 0.3 mg/kg
Rattus norvegicus [19] = assay: Induction of hypothermia in Sprague-Dawley rat at 3 mg/kg, sc after 60 mins; type: functional, organism-based; parameters: dose 3 mg/kg
Rattus norvegicus [20] = assay: Induction of hypothermia in Sprague-Dawley rat at 0.3 mg/kg, sc after 2 hrs; type: functional; details: route subcutaneous
Rattus norvegicus [21] = assay: Induction of hypothermia in Sprague-Dawley rat at 0.3 mg/kg, sc up to 6 hrs; type: functional, organism-based; parameters: dose 0.3 mg/kg

Cannabinoid receptor 2 (Mus musculus, UniProt P47936), sequence (P47936 whole entry): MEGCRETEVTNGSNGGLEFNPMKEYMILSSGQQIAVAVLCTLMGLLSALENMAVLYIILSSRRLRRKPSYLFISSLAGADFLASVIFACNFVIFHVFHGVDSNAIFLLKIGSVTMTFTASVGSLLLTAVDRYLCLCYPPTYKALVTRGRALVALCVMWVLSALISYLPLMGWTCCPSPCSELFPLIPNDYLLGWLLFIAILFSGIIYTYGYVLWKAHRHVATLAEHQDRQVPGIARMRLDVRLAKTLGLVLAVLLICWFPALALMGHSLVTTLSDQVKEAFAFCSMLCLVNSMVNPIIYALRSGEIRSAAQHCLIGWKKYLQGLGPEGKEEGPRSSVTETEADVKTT
Cannabinoid receptor 2 (Homo sapiens, UniProt P34972), sequence (P34972 whole entry): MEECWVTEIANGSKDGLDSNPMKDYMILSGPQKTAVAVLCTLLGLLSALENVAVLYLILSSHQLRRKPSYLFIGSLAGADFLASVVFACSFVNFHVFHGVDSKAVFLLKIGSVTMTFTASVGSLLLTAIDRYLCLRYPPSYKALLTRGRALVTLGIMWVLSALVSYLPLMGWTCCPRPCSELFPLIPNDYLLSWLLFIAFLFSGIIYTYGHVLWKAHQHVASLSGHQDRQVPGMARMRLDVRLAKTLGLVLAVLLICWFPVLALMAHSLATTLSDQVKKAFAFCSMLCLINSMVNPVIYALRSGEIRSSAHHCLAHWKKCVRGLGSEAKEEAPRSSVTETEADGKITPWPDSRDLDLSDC
Cannabinoid receptor 1 (Rattus norvegicus), sequence (P20272 whole entry): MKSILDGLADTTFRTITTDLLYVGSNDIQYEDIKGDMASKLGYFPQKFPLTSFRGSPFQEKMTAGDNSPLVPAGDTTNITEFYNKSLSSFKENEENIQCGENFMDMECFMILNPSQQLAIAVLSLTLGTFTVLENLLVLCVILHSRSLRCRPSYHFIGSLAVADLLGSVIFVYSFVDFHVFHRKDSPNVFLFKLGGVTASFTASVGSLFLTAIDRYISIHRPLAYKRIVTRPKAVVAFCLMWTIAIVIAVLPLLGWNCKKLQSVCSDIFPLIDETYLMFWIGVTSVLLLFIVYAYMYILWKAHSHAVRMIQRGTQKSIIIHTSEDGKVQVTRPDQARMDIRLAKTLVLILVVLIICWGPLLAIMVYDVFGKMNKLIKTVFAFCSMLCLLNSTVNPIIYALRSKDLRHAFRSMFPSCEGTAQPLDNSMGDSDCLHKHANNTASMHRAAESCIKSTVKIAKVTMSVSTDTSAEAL
T1 sequence (P20272 whole entry): as above

Row | SMILES | pKi (Cannabinoid receptor 1 [1]) | pKi (Cannabinoid receptor 2 [2]) | Activity (Rattus norvegicus [3]) | pKi (Cannabinoid receptor 2 [4]) | t1/2 (Plasma [5]) | t1/2 (Plasma [6]) | other results
1 | CC1=CC[C@@H]2[C@@H](C1)c1c(O)cc([C@H](C)C(=O)O)cc1OC2(C)C | < 5.00 | < 5.00 | inactive | – | – | – | –
2 | CC1=CC[C@@H]2[C@@H](C1)c1c(O)cc([C@@H](C)C(=O)O)cc1OC2(C)C | < 5.00 | < 5.00 | inactive | – | – | – | –
3 | CC1=CC[C@@H]2[C@@H](C1)c1c(O)cc(C(C)(C)C(=O)O)cc1OC2(C)C | < 5.00 | < 5.00 | inactive | – | – | – | –
4 | CC1=CC[C@@H]2[C@@H](C1)c1c(O)cc(CC(=O)O)cc1OC2(C)C | < 5.00 | < 5.00 | inactive | – | – | – | –
5 | CC1=CC[C@@H]2[C@@H](C1)c1c(O)cc(C3(C(=O)O)CCC3)cc1OC2(C)C | < 5.00 | < 5.00 | inactive | – | – | – | –
6 | CCCCOC(=O)Cc1cc(O)c2c(c1)OC(C)(C)[C@@H]1CC=C(C)C[C@@H]21 | 7.57 | 7.39 | – | 7.29 | < 0.5 min | 0.7 min | inhibition [7]: inactive; Activity (Rattus norvegicus [8]): inactive; Activity (Rattus norvegicus [9]): inactive
7 | CCCCOC(=O)[C@@H](C)c1cc(O)c2c(c1)OC(C)(C)[C@@H]1CC=C(C)C[C@@H]21 | 9.22 | 8.21 | Dose-dependent effect | 8.20 | 4.3 min | 4 min | T (Rattus norvegicus [10]): 3.6 °C; Activity (Rattus norvegicus [11]): inactive; pEC50 (Cannabinoid receptor 1 [12]): 8.38; Emax [13]: 63%; Activity (Rattus norvegicus [14]): Active
8 | CCCCOC(=O)C1(c2cc(O)c3c(c2)OC(C)(C)[C@@H]2CC=C(C)C[C@@H]32)CCC1 | – | 8.52 | Dose-dependent effect | 8.52 | 263 min | 36.3 min | T (Rattus norvegicus [10]): 3.6 °C; Activity (Rattus norvegicus [15]): Active; Activity (Rattus norvegicus [16]): inactive; pEC50 (Cannabinoid receptor 1 [12]): 9.40; Emax [13]: 90%
9 | CCCCCCC(C)(C)c1cc(O)c2c(c1)OC(C)(C)[C@@H]1CC=C(C)C[C@@H]21 | – | – | – | – | – | – | Activity (Mus musculus): Active; Activity (Rattus norvegicus [17]): Active; Activity (Rattus norvegicus [9]): Active; Activity (Rattus norvegicus [18]): Active
10 | CCCCOC(=O)[C@H](C)c1cc(O)c2c(c1)OC(C)(C)[C@@H]1CC=C(C)C[C@@H]21 | 8.80 | 8.35 | – | 8.43 | 10.5 min | 5.9 min | inhibition [7]: inactive; Activity (Rattus norvegicus [8]): inactive; Activity (Rattus norvegicus [9]): inactive
11 | CCCCOC(=O)C(C)(C)c1cc(O)c2c(c1)OC(C)(C)[C@@H]1CC=C(C)C[C@@H]21 | 9.52 | 8.68 | Dose-dependent effect | 8.77 | 120 min | 12.4 min | T (Rattus norvegicus [10]): 3.6 °C; Activity (Mus musculus): Active; Activity (Rattus norvegicus [11]): inactive; Activity (Rattus norvegicus [19]): Active; T (Rattus norvegicus [20]): 2 °C; pEC50 (Cannabinoid receptor 1 [12]): 9.30; Emax [13]: 92%; Activity (Rattus norvegicus [21]): Active
